From patent US10889573B2, “Anthelmintic quinoline-3-carboxamide derivatives” (Bayer Animal Health GMBH, priority 2016, dated 2021)

Experiments:
[1] = tested on: Nippostrongylus brasiliensis; assay: In vitro assay 2: Nippostrongylus brasiliensis (NIPOBR), acetylcholine esterase readout; conditions: read-out: activity (reduction of AChE compared to negative control); for inhibition at 1 µg/mL: 1 μg/ml; for inhibition at 10 µg/mL: 10 μg/ml
Protocol: In Vitro Assay 2: Nippostrongylus brasiliensis (NIPOBR)
Adult Nippostrongylus brasiliensis were washed with saline buffer containing 100 U/ml penicillin, 0.1 mg/ml streptomycin and 2.5 μg/ml amphotericin B. Test compounds were dissolved in DMSO and worms were incubated in medium in a final concentration of 10 μg/ml (10 ppm) respectively 1 μg/ml (1 ppm). An aliquot of the medium was used to determine the acetylcholine esterase activity in comparison to a negative control. The principle of measuring acetylcholine esterase as readout for anthelmintic activity was described in Rapson et al (1986) and Rapson et al (1987).

[2] = tested on: Dirofilaria immitis microfilariae; assay: In vitro assay 3: Dirofilaria immitis microfilariae (DIROIM L1), motility; conditions: 72 h, read-out: EC50 (reduction of motility), 72 h incubation
[3] = tested on: Dirofilaria immitis third-stage larvae; assay: In vitro assay 4: Dirofilaria immitis (DIROIM L4), motility; conditions: 72 h, read-out: EC50 (reduction of motility)
C. elegans Slo-1a = C. elegans Slo-1a (Caenorhabditis elegans, UniProt Q95V25); conditions: pE50 (negative decadic logarithm of EC50), CHO cells expressing C. elegans Slo-1a, voltage sensitive dye
C. elegans Slo-1a, sequence (Q95V25 whole entry): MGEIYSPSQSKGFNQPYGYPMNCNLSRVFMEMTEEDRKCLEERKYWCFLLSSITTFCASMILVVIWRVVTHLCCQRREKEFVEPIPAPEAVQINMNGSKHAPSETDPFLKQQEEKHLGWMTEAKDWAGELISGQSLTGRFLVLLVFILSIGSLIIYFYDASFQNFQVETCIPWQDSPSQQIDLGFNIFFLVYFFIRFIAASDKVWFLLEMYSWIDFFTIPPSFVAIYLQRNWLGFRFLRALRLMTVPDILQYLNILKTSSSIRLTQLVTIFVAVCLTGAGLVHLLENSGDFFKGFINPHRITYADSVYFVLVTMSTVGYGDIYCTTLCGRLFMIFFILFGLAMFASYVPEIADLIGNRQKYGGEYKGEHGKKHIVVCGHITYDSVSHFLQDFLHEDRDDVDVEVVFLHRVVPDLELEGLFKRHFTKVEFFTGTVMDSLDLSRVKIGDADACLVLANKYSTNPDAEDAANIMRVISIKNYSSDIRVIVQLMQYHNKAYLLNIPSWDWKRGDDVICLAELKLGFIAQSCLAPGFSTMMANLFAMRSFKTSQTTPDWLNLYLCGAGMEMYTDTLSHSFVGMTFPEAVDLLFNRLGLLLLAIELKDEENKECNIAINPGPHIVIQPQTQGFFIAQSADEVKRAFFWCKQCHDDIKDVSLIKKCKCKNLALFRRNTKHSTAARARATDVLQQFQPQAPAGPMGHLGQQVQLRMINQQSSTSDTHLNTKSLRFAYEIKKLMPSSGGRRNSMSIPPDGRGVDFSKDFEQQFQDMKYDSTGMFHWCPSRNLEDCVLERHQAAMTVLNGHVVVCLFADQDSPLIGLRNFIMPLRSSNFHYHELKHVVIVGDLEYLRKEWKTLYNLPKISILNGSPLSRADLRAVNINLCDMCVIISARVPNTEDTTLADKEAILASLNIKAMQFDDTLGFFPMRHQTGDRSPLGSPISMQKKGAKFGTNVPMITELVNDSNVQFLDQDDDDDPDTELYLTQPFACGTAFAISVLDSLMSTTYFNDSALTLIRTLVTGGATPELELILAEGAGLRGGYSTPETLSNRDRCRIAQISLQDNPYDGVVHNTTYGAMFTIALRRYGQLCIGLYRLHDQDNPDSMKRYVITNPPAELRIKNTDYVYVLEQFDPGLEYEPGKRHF

Haemonchus contortus = conditions: 120 h, read-out: activity (larval mortality)
Protocol: In Vitro Assay 7: Haemonchus contortus (HAEMCO L3)
Solvent: dimethyl sulfoxide
Approximately 40 larvae of the red stomach worm (Haemonchus contortus) are transferred into a test tube containing compound solution.
After 5 days the percentage of larval mortality is recorded. 100% efficacy means all larvae are killed, 0% efficacy means no larvae are killed.

Cooperia curticei = conditions: Cooperia curticei, 120 h, read-out: activity (larval mortality)
Protocol: In Vitro Assay 6: Cooperia curticei (COOPCU L3)
Solvent: dimethyl sulfoxide
Approximately 40 nematode larvae (Cooperia curticei) are transferred into a test tube containing the compound solution.
After 5 days percentage of larval mortality is recorded. 100% efficacy means all larvae are killed; 0% efficacy means no larvae are killed.

Row | SMILES | inhibition at 1 µg/mL [1] [%] | EC50 [2] [µg/mL] | EC50 [3] [µg/mL] | EC50 (C. elegans Slo-1a) [nM] | mortality at 4 ppm (Haemonchus contortus) [%] | mortality at 20 ppm (Haemonchus contortus) [%] | mortality at 20 ppm (Cooperia curticei) [%] | mortality at 4 ppm (Cooperia curticei) [%] | inhibition at 10 µg/mL [1] [%]
1 | C=Cc1c(C(=O)N[C@H]2CCOc3ccccc32)cnc2c(-c3cc(Cl)cc(Cl)c3)cccc12 [Example 478] | > 80 | < 0.1 | < 0.1 | < 3.16 | – | – | – | – | –
2 | CN(C)c1c(C(=O)N[C@H]2CCOc3ccccc32)cnc2c(-c3c(F)cccc3F)cccc12 [Example 277] | > 80 | < 0.1 | < 0.1 | < 3.16 | – | – | – | – | –
3 | O=C(N[C@H]1CCOc2ccccc21)c1cnc2c(-c3cc(Cl)cc(Cl)c3)cccc2c1N1CC(F)C1 [Example 392] | > 80 | < 0.1 | < 0.1 | 3.16 to 31.6 | 80 | 80 | – | – | –
4 | O=C(N[C@H]1CCOc2ccccc21)c1cnc2c(-c3sccc3Cl)cccc2c1N1CCOCC1 [Example 442] | – | < 0.1 | < 0.1 | < 3.16 | – | – | – | – | –
5 | O=C(N[C@H]1CCOc2ccccc21)c1cnc2c(-c3c(F)cccc3F)c(F)ccc2c1N1CCOCC1 [Example 278] | – | < 0.1 | < 0.1 | < 3.16 | – | – | – | – | –
6 | NC(=O)Cc1c(C(=O)N[C@H]2CCOc3ccccc32)cnc2c(-c3cc(Cl)cc(Cl)c3)cccc12 [Example 360, 4-(2-amino-2-oxoethyl)-8-(3,5-dichlorophenyl)-N-[(4S)-3,4-dihydro-2H-chromen-4-yl]quinoline-3-carboxamide] | > 80 | < 0.1 | < 0.1 | 3.16 to 31.6 | – | – | – | – | –
7 | CN(C)c1c(C(=O)N[C@H]2CCOc3ccccc32)cnc2c(-c3cccc(Cl)c3Cl)c(C(F)(F)F)ccc12 [Example 315] | > 80 | < 0.1 | < 0.1 | < 3.16 | – | – | 80 | – | –
8 | O=C(N[C@H]1CCOc2ccccc21)c1cnc2c(-c3ccc(F)c(Cl)c3)cccc2c1N1CCC(O)C1 (mixture of isomers) [Example 196] | – | < 0.1 | < 0.1 | 3.16 to 31.6 | – | – | 100 | 90 | –
9 | O=C(N[C@H]1CCOc2ccccc21)c1cnc2c(-c3cc(Cl)cc(Cl)c3)cccc2c1N1CC[C@@H](O)C1 [Example 283] | > 80 | < 0.1 | < 0.1 | < 3.16 | – | – | – | – | –
10 | Cc1cc(C)cc(-c2cccc3c(Cl)c(C(=O)N[C@H]4CCCc5ccccc54)cnc23)c1 [Example 1, 4-chloro-8-(3,5-dimethylphenyl)-N-[(1S)-1,2,3,4-tetrahydronaphthalen-1-yl]quinoline-3-carboxamide] | – | < 0.1 | < 1 | 31.6 to 316 | – | – | – | – | –
11 | CCc1c(C(=O)N[C@H]2CCOc3ccccc32)cnc2c(-c3cccc(OC(F)(F)F)c3)cccc12 [Example 570] | > 80 | < 0.1 | < 0.1 | 3.16 to 31.6 | – | – | – | – | –
12 | C[C@H]1CN(c2c(C(=O)N[C@H]3CCOc4ccccc43)cnc3c(-c4cc(Cl)cc(Cl)c4)cccc23)CCO1 [Example 290] | > 80 | < 0.1 | < 0.1 | < 3.16 | – | – | – | – | –
13 | O=C(N[C@H]1CCCc2ccccc21)c1cnc2c(-c3cc(Cl)cc(Cl)c3)cccc2c1Cl [Example 2] | – | < 10 | < 1 | 3.16 to 31.6 | – | – | – | – | –
14 | O=C(N[C@H]1CCOc2ccccc21)c1cnc2c(-c3cccc(F)c3Cl)cccc2c1N1CCOCC1 [Example 238] | > 80 | < 0.1 | < 0.1 | < 3.16 | – | – | 80 | – | –
15 | O=C(N[C@H]1CCc2ccccc21)c1cnc2c(-c3cc(Cl)cc(Cl)c3)cccc2c1N1CC(F)C1 [Example 119] | > 80 | < 0.1 | < 0.1 | 3.16 to 31.6 | – | – | – | – | > 80
16 | CN(C)c1c(C(=O)N[C@H]2CCOc3ccccc32)cnc2c(-c3ncccc3F)cccc12 [Example 62] | – | < 1 | < 0.1 | 31.6 to 316 | – | – | – | – | > 80
